Starred links: 1 amine or outer side, 2 acyl side, 3 side chain; linkers in the order of their positions; H or OH if unused. Non-standard residues stand in square brackets, D forms with d. Residues, ends and D or L forms follow the SMILES beside them. *: point of attachment. Gly(N-(3-decanoyloxypropyl)) = CCCCCCCCCC(=O)OCCCNCC(=O)O; Gly(N-(CH2)3O-octanoyl) = CCCCCCCC(=O)OCCCNCC(=O)O; Gly(N-3-morpholinopropyl) = O=C(O)CNCCCN1CCOCC1; X5 = CCCCC(CC)C(=O)OCCCCCCN(CC(=O)[*:2])[*:1]; X4 = CCCCCCCCCCCC(=O)OCCN(CC(=O)[*:2])[*:1]; N(2-ethylhexyl)Gly = CCCCC(CC)CNCC(=O)O; X6 = CCCCCCCC(=O)OCCN(CC(=O)[*:2])[*:1]; X7 = CCCCCCCCCCSSCCN(CC(=O)[*:2])[*:1]; Gly(N-dodecyl) = CCCCCCCCCCCCNCC(=O)O; N(CH(CH2OH)2)Gly = O=C(O)CNC(CO)CO; N(octyl)Gly = CCCCCCCCNCC(=O)O; NDecylGly = CCCCCCCCCCNCC(=O)O; For = O=C*
Columns and labels:
[1] = Delivery vehicle size and polydispersity by dynamic light scattering; format: physicochemical; conditions: DLS in PBS; peptoid:DSPC:Cholesterol:DMG-PEG2000 weight ratio 20:1.79:7.16:1.84, mRNA
Procedure: Delivery vehicles were formulated by rapid microfluidic mixing using a high throughput microfluidic system. Briefly, ethanol solutions containing peptoid, DSPC, Cholesterol, DMG-PEG2000 at weight ratio of 20:1.79:7.16:1.84, were mixed with 10 mM sodium citrate buffer (pH 5.0) containing synthesized mRNA at a ratio of 1:3 by volume. Peptoid based LNPs were subsequently dialyzed against 1-2 liters of tris-sucrose buffer (TS7, pH 7.4) overnight at 4 °C. Delivery vehicle size and polydispersity (PDI) was measured by dynamic light scattering in PBS.
(§1) Degradable peptoids described herein were formulated as various formulations described in Table 3 according to the procedure described in Example 2. Particle size was characterized as described in Example 2, and […] encapsulation of mRNA was determined as described in Example 3.

firefly luciferase = test: In vivo firefly luciferase expression after intravenous injection of fLuc mRNA delivery vehicles (IVIS imaging); parameters: species or system female Balb/c mice; conditions: mice, 2.5 ug fLuc mRNA intravenously, 6 hours post-injection
Procedure: (§2) All animal studies were conducted under accreditation by the California State Department of Public Health and under supervision of IACUC and Veterinarian Supervision. For imaging studies, female Balb/c mice (6-8 weeks old) were obtained and acclimatized for a minimum of 3 days prior to experiments. The animals were maintained on a 12 hour light cycle in a temperature and humidity controlled room. A daily health check was performed as well as food and water check. For dosing, mice were injected with 2.5 ug fLuc mRNA-containing Nutshells intravenously in 100 μL total injection value. At 6 hours post-injection, mice were anesthetized with isoflurane, injected IP with 30 mg/mL D-luciferin at a dose of 10 μL per gram bodyweight intraperitoneally. Imaging was done 10 minutes post D-luciferin injection using an IVIS Spectrum Imaging System (Caliper Life Sciences). Immediately after in vivo imaging, mice were terminally bled by cardiac puncture and euthanized. The organs of interest were harvested, placed in black 24-well plates, and imaged. Living Image software (Perkin Elmer) was used to quantify the total photon flux in regions of interest.
Luciferase expression in these formulations was also determined as described in Example 4.

mRNA = mRNA encapsulation (modified Quant-iT RiboGreen assay); format: physicochemical; conditions: RiboGreen, without vs with Triton X-100
Procedure: The mRNA concentration and the percentage of encapsulated mRNA were determined using fluorescent-based Quant-iT RiboGreen RNA Reagent Kit (Life Technologies, Waltham, MA) as described previously. To determine the mRNA concentration, PNPs was incubated with […] for 10 min to release entrapped mRNA, followed by addition of RiboGreen RNA reagent. The fluorescence intensity of mRNA-RiboGreen reagent complex (excitation at 485 nm and emission at 530 nm) was detected using a microplate reader. The ratio of fluorescence without and with Triton X-100 were used to calculate the percentage of encapsulated mRNA.
as §1

luciferase = test: Luciferase expression after local (intramuscular or subcutaneous) administration of mRNA; format: in vivo; conditions: mRNA 0.01 mpk, 6 hours; for IM Flux: intramuscular; for SC Flux: subcutaneous
Procedure: as §2
Aminolipidated peptoids were also effective for local administration of mRNA through subcutaneous (S.C.) or intramuscular (I.M.) routes of administration. For these examples, mRNA was administered at a dose of 0.1 mpk for intratomoral, or 0.01 mpk for subcutaneous and intramuscular administration, and the resulting bioluminescence quantified after 6 hours according to a similar procedure as described in Example 4.

Row | Compound | PDI [1] | Particle Size [1] [nm] | Total Flux (firefly luciferase) [p/s] | mean percent encapsulation of RNA (mRNA) [%] | IM Flux (luciferase) [p/s] | SC Flux (luciferase) [p/s]
1 | CCCCCCCC(=O)OCCCN(CC(=O)N(CCc1ccccc1)CC(=O)N(CC(=O)N(CCCN1CCOCC1)CC(=O)N(CC(=O)N(CCc1ccccc1)CC(=O)N(CCCOC(=O)CCCCCCC)CC(=O)N(CC(N)=O)CC(CC)CCCC)CC(CC)CCCC)CC(CC)CCCC)C(=O)CN(C=O)CC(CC)CCCC (stereo not shown) [Compound 124] | 0.118 | 85.2 | 6.20E+08 | 93.5 | 4.35E+07 | 4.34E+07
2 | CCCCCCCC(=O)OCCN(CC(=O)N(CC(=O)N(CC(=O)N(CCOC(=O)CCCCCCC)CC(=O)N(CC(N)=O)CC(CC)CCCC)CC(CC)CCCC)CC(CC)CCCC)C(=O)CN(CC(CC)CCCC)C(=O)CNC(CO)CO (stereo not shown) [Compound 1] (H-[N(CH(CH2OH)2)Gly][N(2-ethylhexyl)Gly][X6][N(2-ethylhexyl)Gly][N(2-ethylhexyl)Gly][X6][N(2-ethylhexyl)Gly]-NH2) | 0.094 | 79.7 | 7.71E+08 | 93.0 |  | 
3 | CCCCCCCCCCSSCCN(CC(=O)N(CC(N)=O)CC(CC)CCCC)C(=O)CN(CC(CC)CCCC)C(=O)CN(CC(CC)CCCC)C(=O)CN(CCCCCCCCCC)C(=O)CN(CC(CC)CCCC)C(=O)CNC(CO)CO (stereo not shown) [Compound 36] (H-[N(CH(CH2OH)2)Gly][N(2-ethylhexyl)Gly][NDecylGly][N(2-ethylhexyl)Gly][N(2-ethylhexyl)Gly][X7][N(2-ethylhexyl)Gly]-NH2) |  |  | 3.51E+09 |  |  | 
4 | CCCCCCCCCCCCN(CC(=O)N(CC(N)=O)CC(CC)CCCC)C(=O)CN(CC(CC)CCCC)C(=O)CN(CC(CC)CCCC)C(=O)CN(CCCOC(=O)CCCCCCC)C(=O)CN(CC(CC)CCCC)C(=O)CNC(CO)CO (stereo not shown) [Compound 14] (H-[N(CH(CH2OH)2)Gly][N(2-ethylhexyl)Gly][Gly(N-(CH2)3O-octanoyl)][N(2-ethylhexyl)Gly][N(2-ethylhexyl)Gly][Gly(N-dodecyl)][N(2-ethylhexyl)Gly]-NH2) | 0.090 | 72.1 | 4.76E+08 | 90.3 |  | 
5 | CCCCCCCCCCCC(=O)OCCN(CC(=O)N(CC(=O)N(CC(=O)N(CCOC(=O)CCCCCCCCCCC)CC(=O)N(CC(N)=O)CC(CC)CCCC)CC(CC)CCCC)CC(CC)CCCC)C(=O)CN(CC(CC)CCCC)C(=O)CNC(CO)CO (stereo not shown) [Compound 3] (H-[N(CH(CH2OH)2)Gly][N(2-ethylhexyl)Gly][X4][N(2-ethylhexyl)Gly][N(2-ethylhexyl)Gly][X4][N(2-ethylhexyl)Gly]-NH2) | 0.076 | 74.6 | 6.66E+08 | 63.8 |  | 
6 | CCCCCCCCCC(=O)OCCCN(C=O)CC(=O)N(CC(=O)N(CCCOC(=O)CCCCCCCCC)CC(=O)N(CCCN1CCOCC1)CC(=O)N(CCCOC(=O)CCCCCCCCC)CC(=O)N(CC(=O)N(CCCOC(=O)CCCCCCCCC)CC(N)=O)CC(CC)CCCC)CC(CC)CCCC (stereo not shown) [Compound 121] (For-[Gly(N-(3-decanoyloxypropyl))][N(2-ethylhexyl)Gly][Gly(N-(3-decanoyloxypropyl))][Gly(N-3-morpholinopropyl)][Gly(N-(3-decanoyloxypropyl))][N(2-ethylhexyl)Gly][Gly(N-(3-decanoyloxypropyl))]-NH2) | 0.166 | 82.9 |  | 72.1 | 4.54E+07 | 5.20E+07
7 | CCCCCCCCCCCCN(CC(=O)N(CC(N)=O)CC(CC)CCCC)C(=O)CN(CCCCCCCC)C(=O)CN(CC(CC)CCCC)C(=O)CN(CCCCCCOC(=O)C(CC)CCCC)C(=O)CN(CCCCCCCC)C(=O)CNC(CO)CO (stereo not shown) [Compound 31] (H-[N(CH(CH2OH)2)Gly][N(octyl)Gly][X5][N(2-ethylhexyl)Gly][N(octyl)Gly][Gly(N-dodecyl)][N(2-ethylhexyl)Gly]-NH2) | 0.091 | 72.9 | 1.11E+09 | 91.4 |  | 

Reference: patent US20260373248A1, “DEGRADABLE PEPTOIDS” (Medici Therapeutics, Inc., priority 2023, published 2026)
